One series addresses Acetylcholinesterase (Electrophorus electricus, UniProt O42275). As to the kind of experiment: Inhibition of electric eel AChE by Ellman's method. (Ellman's reagent forms a yellow product with free thiols.)
The test system of another series is Vero. As to the kind of experiment: Cytotoxicity against African green monkey Vero cells by sulforhodamine B assay. Set-up: concentration or dose not given beside the values. It counts as cell-based. Conditions: chlorocebus sabaeus. (In general: The SRB assay estimates cell density from bound dye.)
Series [1] concerns the target T1, Cholinesterase (Homo sapiens, UniProt P06276). As to the kind of experiment: Inhibition of human BChE by Ellman's method.
Another series concerns NCI-H157. As to the kind of experiment: Cytotoxicity against human NCI-H157 cells by sulforhodamine B assay. It is filed as functional, cell-based.
Series [2] addresses T1, Cholinesterase. As to the kind of experiment: Ratio of neostigmine IC50 to compound IC50 for human BChE.
Series [3] has as its target Acetylcholinesterase (Electrophorus electricus) (UniProt O42275). The series can be described thus: Inhibition of electric eel AChE at 100 uM by Ellman's method.

pIC50: −log10 of the molar value.

Chain of Acetylcholinesterase (O42275 whole entry): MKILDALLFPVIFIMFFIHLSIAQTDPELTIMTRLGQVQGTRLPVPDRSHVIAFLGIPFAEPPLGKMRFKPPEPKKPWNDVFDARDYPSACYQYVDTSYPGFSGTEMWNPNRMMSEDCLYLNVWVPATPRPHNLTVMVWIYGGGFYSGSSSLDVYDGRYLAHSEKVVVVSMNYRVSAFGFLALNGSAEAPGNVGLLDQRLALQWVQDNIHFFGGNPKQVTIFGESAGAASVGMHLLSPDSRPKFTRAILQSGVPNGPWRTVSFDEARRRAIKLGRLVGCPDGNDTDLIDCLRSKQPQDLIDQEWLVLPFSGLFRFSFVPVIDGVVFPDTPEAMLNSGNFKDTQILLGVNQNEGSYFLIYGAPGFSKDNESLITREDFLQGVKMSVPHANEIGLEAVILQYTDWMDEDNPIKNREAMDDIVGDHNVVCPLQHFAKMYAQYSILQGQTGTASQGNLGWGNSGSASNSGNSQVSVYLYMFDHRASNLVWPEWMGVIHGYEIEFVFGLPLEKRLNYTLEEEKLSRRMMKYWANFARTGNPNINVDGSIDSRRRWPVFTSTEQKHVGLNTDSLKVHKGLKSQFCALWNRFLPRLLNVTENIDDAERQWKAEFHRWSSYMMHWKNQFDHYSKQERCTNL
Chain of Acetylcholinesterase (Electrophorus electricus) (O42275 24-633 limits assumed): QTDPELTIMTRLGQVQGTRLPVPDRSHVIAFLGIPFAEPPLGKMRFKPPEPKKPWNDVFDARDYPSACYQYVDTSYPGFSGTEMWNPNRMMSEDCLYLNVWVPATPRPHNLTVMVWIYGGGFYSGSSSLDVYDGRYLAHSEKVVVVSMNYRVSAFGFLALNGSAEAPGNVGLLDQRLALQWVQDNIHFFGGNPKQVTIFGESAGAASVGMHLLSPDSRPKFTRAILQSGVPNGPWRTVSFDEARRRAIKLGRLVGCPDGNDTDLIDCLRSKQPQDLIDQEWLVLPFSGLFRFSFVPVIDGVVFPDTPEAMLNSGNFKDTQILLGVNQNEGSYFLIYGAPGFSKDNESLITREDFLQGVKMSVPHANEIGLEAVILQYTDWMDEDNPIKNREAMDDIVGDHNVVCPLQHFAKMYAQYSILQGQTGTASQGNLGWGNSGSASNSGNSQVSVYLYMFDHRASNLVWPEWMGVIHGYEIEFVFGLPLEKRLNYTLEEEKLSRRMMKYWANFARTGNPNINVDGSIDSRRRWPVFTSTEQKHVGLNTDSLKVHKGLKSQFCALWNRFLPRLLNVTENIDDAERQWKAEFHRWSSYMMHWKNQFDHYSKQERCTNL
T1 sequence (P06276 whole entry): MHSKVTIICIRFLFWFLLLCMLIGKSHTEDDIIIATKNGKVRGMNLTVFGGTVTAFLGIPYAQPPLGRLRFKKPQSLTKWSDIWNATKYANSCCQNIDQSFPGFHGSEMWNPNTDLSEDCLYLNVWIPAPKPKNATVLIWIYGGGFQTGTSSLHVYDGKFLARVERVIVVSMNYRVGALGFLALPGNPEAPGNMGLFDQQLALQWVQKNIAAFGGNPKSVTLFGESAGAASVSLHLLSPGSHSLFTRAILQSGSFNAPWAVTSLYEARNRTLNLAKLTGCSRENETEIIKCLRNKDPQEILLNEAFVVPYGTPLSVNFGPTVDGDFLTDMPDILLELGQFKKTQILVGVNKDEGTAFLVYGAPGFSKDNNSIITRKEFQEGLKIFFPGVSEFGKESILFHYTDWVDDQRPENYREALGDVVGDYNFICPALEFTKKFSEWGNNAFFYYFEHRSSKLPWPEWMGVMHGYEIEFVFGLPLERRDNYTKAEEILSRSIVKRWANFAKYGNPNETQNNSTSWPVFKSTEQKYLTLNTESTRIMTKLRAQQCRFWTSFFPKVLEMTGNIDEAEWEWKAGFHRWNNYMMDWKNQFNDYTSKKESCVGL

As to `Oc1ccccc1OCc1nn2c(-c3cccnc3)nnc2s1`, the pIC50 (usually −log10 of the IC50, conventionally taken in molar units) against Acetylcholinesterase was 4.45; against Cholinesterase [1] it was 5.52; in the series on NCI-H157, 5.44. Further, the Activity in the series with Vero was found to be 22.7%.

As to `O=[N+]([O-])c1ccc(C2=Nn3c(nnc3-c3cccnc3)SC2)cc1`, the values for the negative logarithm of the IC50 (pIC50) against Acetylcholinesterase, on Cholinesterase [1] and with NCI-H157 were 4.74, 5.96 and 5.85, respectively. The Ratio IC50 on Cholinesterase [2] stood at 15. In the series with Vero, the Activity was determined as 10.7%.

The compound `c1cncc(-c2nnc3sc(-c4ccoc4)nn23)c1` gave an Activity in the series on Vero of 28.4%. Further, in the series with NCI-H157, the pIC50 was 5.47.

Regarding `Oc1ccc(OCc2nn3c(-c4cccnc4)nnc3s2)cc1`, the pIC50 against Acetylcholinesterase is 5.51; at Cholinesterase [1], 6.23; in the series on NCI-H157, 5.52. In the series with Vero, the Activity is reported as 20.4%.

As for `c1cncc(-c2nnc3n2N=C(c2cccc4ccccc24)CS3)c1`, the Activity in the series with Vero turned out to be 23.1%. In series [3], the inhibition (in general, how much of the control response was suppressed) was 17.2%. Further, the figures for the pIC50 against Cholinesterase [1] and in the series with NCI-H157 were 4.80 and 5.27, respectively.

Regarding `c1ccc(-c2ccc(C3=Nn4c(nnc4-c4cccnc4)SC3)cc2)cc1`, the pIC50 at Acetylcholinesterase was 4.40; against Cholinesterase [1], 4.72; in the series with NCI-H157, 5.36. In the series on Vero, this compound returned an Activity of 26.1%.

With `Cc1ccc(OCc2nn3c(-c4cccnc4)nnc3s2)cc1`, the pIC50 was 4.95 against Acetylcholinesterase, 5.32 against Cholinesterase [1] and 5.53 in the series on NCI-H157. Also, the Activity in the series on Vero stood at 23.8%.

Regarding `CCOc1ccc(Cc2nn3c(-c4cccnc4)nnc3s2)cc1`, the Activity in the series on Vero amounted to 22.5%. In addition, in series [3], the inhibition stood at 38.4%. The results for the negative logarithm of the IC50 (pIC50) at Cholinesterase [1] and with NCI-H157 were 4.15 and 5.53, respectively.

For `Cc1occc1-c1nn2c(-c3cccnc3)nnc2s1`, the pIC50 against Acetylcholinesterase is 4.42; on Cholinesterase [1] it was 4.23; with NCI-H157 it was 5.53. The compound also displayed an Activity in the series on Vero of 24.3%.

In turn, `Fc1ccc(-c2nn3c(-c4cccnc4)nnc3s2)cc1Cl` came in with an Activity in the series on Vero of 23.6%. The inhibition in series [3] was 48.4%. Moreover, the values for the negative-log IC50 (pIC50) against Cholinesterase [1] and in the series on NCI-H157 were 4.99 and 5.97, respectively.

Compound `Fc1cc(Cl)ccc1-c1nn2c(-c3cccnc3)nnc2s1` came in with an Activity with Vero of 26.7%. Further, in series [3], the inhibition worked out at 36.2%. Further, the results for the pIC50 against Cholinesterase [1] and in the series on NCI-H157 were 4.43 and 5.73, respectively.

Turning to `c1cncc(-c2nnc3sc(-c4ccc[nH]4)nn23)c1`, the pIC50 on Acetylcholinesterase is 4.86; against Cholinesterase [1] it was 4.86; in the series on NCI-H157, 5.29. The same compound displayed an Activity in the series with Vero of 19.2%.

Compound `Fc1ccc(C2=Nn3c(nnc3-c3cccnc3)SC2)cc1` had an Activity in the series on Vero of 18.4%. In series [3], this compound showed an inhibition of 40.8%. Also, the pIC50 on Cholinesterase [1] is 5.31; with NCI-H157, 5.73.

In turn, `Fc1ccc(Cc2nn3c(-c4cccnc4)nnc3s2)cc1` returned an Activity in the series on Vero of 21.3%. Besides, the inhibition in series [3] was 32.3%. Also, the pIC50 was 4.10 against Cholinesterase [1] and 5.78 with NCI-H157.

Regarding `Fc1ccc(OCc2nn3c(-c4cccnc4)nnc3s2)cc1`, the Activity in the series with Vero is 17.4%. The pIC50 with NCI-H157 was 5.71.

`Clc1ccc(C2=Nn3c(nnc3-c3cccnc3)SC2)cc1Cl`: the pIC50 was 4.41 at Acetylcholinesterase, 4.19 at Cholinesterase [1] and 6.02 in the series with NCI-H157. This compound also gave an Activity in the series on Vero of 22.2%.

In the case of `CN(C)C(=O)Oc1cccc([N+](C)(C)C)c1` [NEOSTIGMINE], on Cholinesterase [1], the pIC50 was 4.79.

`Cc1ccc(C2=Nn3c(nnc3-c3cccnc3)SC2)cc1` yielded an Activity in the series with Vero of 27.3%. Besides, the inhibition in series [3] came out at 28.7%. Further, the pIC50 at Cholinesterase [1] was 4.60; in the series on NCI-H157, 5.41.

On to `Clc1ccc(C2=Nn3c(nnc3-c3cccnc3)SC2)cc1`, for which the results for the negative logarithm of the IC50 (pIC50) against Acetylcholinesterase, at Cholinesterase [1] and in the series with NCI-H157 were 4.82, 5.01 and 5.40, respectively. The Activity in the series with Vero stood at 21.1%.

Compound `CC[C@]1(O)C[C@H]2CN(CCc3c([nH]c4ccccc34)[C@@](C(=O)OC)(c3cc4c(cc3OC)N(C=O)[C@H]3[C@@](O)(C(=O)OC)[C@H](OC(C)=O)[C@]5(CC)C=CCN6CC[C@]43[C@@H]65)C2)C1` [VINCRISTINE] registered an Activity in the series on Vero of 16.81%. In the series with NCI-H157, this compound had a pIC50 of 5.99.

On to `COc1ccc(C2=Nn3c(nnc3-c3cccnc3)SC2)cc1`, for which the Ratio IC50 at Cholinesterase [2] came out at 23. Also, the Activity with Vero stood at 27.8%. Besides, the inhibition in series [3] was 15.2%. The pIC50 against Cholinesterase [1] is 6.11; with NCI-H157, 5.78.

For `c1cncc(-c2nnc3sc(-c4ccco4)nn23)c1`, the results for the pIC50 on Acetylcholinesterase, on Cholinesterase [1] and in the series on NCI-H157 were 4.67, 5.22 and 5.50, respectively. Also, the Activity with Vero is reported as 23.9%.

Regarding `Cc1ccccc1OCc1nn2c(-c3cccnc3)nnc2s1`, the Activity in the series on Vero is given as 20.9%. In the series with NCI-H157, this compound gave a pIC50 of 5.48.

Turning to `COc1ccc(OCc2nn3c(-c4cccnc4)nnc3s2)cc1`, the Activity in the series with Vero is recorded as 24.1%. In addition, the inhibition in series [3] came out at 39.5%. In addition, the pIC50 at Cholinesterase [1] was 4.25; in the series on NCI-H157, 5.71.

The values above are taken from ChEMBL document CHEMBL3352388, “Active compounds from a diverse library of triazolothiadiazole and triazolothiadiazine scaffolds: synthesis, crystal structure determination, cytotoxicity, cholinesterase inhibitory activity, and binding mode analysis” (Bioorg Med Chem, 2014).
